Data published in ChEMBL document CHEMBL1122770, “Quantitative structure-activity relationship of insect juvenile hormone mimetic compounds” (J Med Chem, 1984).

How the values were obtained:
[1] = Partition coefficient (logP); type: physicochemical; conditions: octanol/water
[2] = tested on: Tenebrio molitor; experiment: Juvenile hormone mimetic activity in Tenebrio molitor (yellow mealworm); type: functional; set-up: unit not given here

| Structure (SMILES) | logP ([1]; read-out: logP) | logP [1] | pI50 [2] |
| --- | --- | --- | --- |
| CC(/C=C/CC(C)CCCC(C)C)=C\C(=O)NC(C)C (stereo not given) | 5.65 | – | 4.33 |
| CCC(=O)/C=C(C)/C=C/CC(C)CCCC(C)C (stereo in doubt; 101) | – | 6.68 | 4.1 |
| CCC(C)OC(=O)/C=C(C)/C=C/CC(C)CCCC(C)C (stereo not given) | 7.69 | – | 3.87 |
| COC(C)(C)CCCC(C)C/C=C/C(C)=C/C(=O)OC(C)C (stereo not given) | 5.95 | – | – |
| CSC(C)(C)CCCC(C)C/C=C/C(C)=C/C(=O)OC(C)C (stereo not given) | 6.77 | – | 3.77 |
| C=CCNC(=O)/C=C(C)/C=C/CC(C)CCCC(C)C (stereo not given) | 5.23 | – | 4.33 |
| C=CCSC(=O)/C=C(C)/C=C/CC(C)CCCC(C)(C)OC (stereo not given) | 6.77 | – | 2.06 |
| CCNC(=O)/C=C(C)/C=C/CC(C)CCC=C(C)C (stereo not given) | 4.69 | – | 4.78 |
| CCOC(=O)/C=C(C)/C=C/CC(C)CCC1OC1(C)C (stereo not given) | 4.76 | – | 2.22 |
| COC(C)(C)CCCC(C)C/C=C/C(C)=C/C(=O)NC(C)C (stereo not given) | 4.45 | – | 4.21 |
| C#CCSC(=O)/C=C(C)/C=C/CC(C)CCCC(C)C (stereo not given) | 5.07 | – | 3.47 |
| CCCC(=O)/C=C(C)/C=C/CC(C)CCCC(C)C (stereo not given) | 6.81 | – | 4.7 |
| C=CCSC(=O)/C=C(C)/C=C/CC(C)CCCC(C)C (stereo not given) | 7.97 | – | 3.26 |
| CC#CCOC(=O)/C=C(C)/C=C/CC(C)CCCC(C)C (stereo not given) | 6.4 | – | 2.12 |
| CCNC(=O)/C=C(C)/C=C/CC(C)CCCC(C)C (stereo not given) | 5.24 | – | 4.76 |
| CCSC(=O)/C=C(C)/C=C/CC(C)CCCC(C)C (stereo not given) | 7.98 | – | 4.05 |
| CC(/C=C/CC(C)CCCC(C)C)=C\C(=O)c1ccccc1 (stereo not given) | 7.26 | – | 3.52 |
| CSC(=O)/C=C(C)/C=C/CC(C)CCCC(C)C (stereo not given) | 7.44 | – | 3.25 |
| CCN(CC)C(=O)/C=C(C)/C=C/CC(C)CCC1OC1(C)C (stereo not given) | 4.04 | – | 3.85 |
| CC(/C=C/CC(C)CCCC(C)C)=C\C(=O)SC(C)C (stereo not given) | 8.39 | – | 4.22 |
| CC(/C=C/CC(C)CCCC(C)C)=C\C(=O)OC(C)C (stereo not given) | 7.15 | – | 4.03 |
| CC(/C=C/CC(C)CCCC(C)C)=C\C(=O)OCC(C)C (stereo not given) | 7.69 | – | 3.8 |
| COC(C)(C)CCCC(C)C/C=C/C(C)=C/C(=O)NC1CC1 (stereo not given) | – | 4.04 | 3.74 |
| CC(C)=CCCC(C)C/C=C/C(C)=C/C(=O)OC(C)C (stereo not given) | 6.6 | – | 3.67 |
| CC(/C=C/CC(C)CCCC(C)C)=C\C(=O)Oc1ccccc1 (stereo not given) | 7.67 | – | 1.5 |
| C#CCOC(=O)/C=C(C)/C=C/CC(C)CCCC(C)C (stereo not given) [KINOPRENE] | 5.86 | – | – |
| COC(=O)/C=C(C)/C=C/CC(C)CCCC(C)C (stereo not given) | 6.2 | – | 2.2 |
| CCOC(=O)/C=C(C)/C=C/CC(C)CCCC(C)C (stereo not given) [HYDROPRENE] | 6.74 | – | – |

Second part, led by results:

| logP ([1]; read-out: logP) | logP [1] | Structure (SMILES) | pI50 [2] |
| --- | --- | --- | --- |
| 5.65 | – | CCNC(=O)/C=C(C)/C=C/CC(C)CCCC(C)(C)C (stereo not given) | 4.45 |
| 5.94 | – | C=CC(C)OC(=O)/C=C(C)/C=C/CC(C)CCCC(C)(C)OC (stereo not given) | 4.39 |
| 6.24 | – | COC(C)(C)CCCC(C)C/C=C/C(C)=C/C(=O)SC (stereo not given) | 3.47 |
| 5.98 | – | CC(=O)OC(C)(C)CCCC(C)C/C=C/C(C)=C/C(=O)OC(C)C (stereo not given) | 3.81 |
| 5.07 | – | CCC(=O)/C=C(C)/C=C/CC(C)CCCC(C)(C)OC (stereo not given) | 5.78 |
| 6.08 | – | CCCOC(=O)/C=C(C)/C=C/CC(C)CCCC(C)(C)OC (stereo not given) | 1.65 |
| 5.4 | – | CC(/C=C/CC(C)CCCC(C)(C)OC=O)=C\C(=O)OC(C)C (stereo not given) | 4.43 |
| 4.66 | – | C#CCOC(=O)/C=C(C)/C=C/CC(C)CCCC(C)(C)OC (stereo not given) | 1.34 |
| 6.07 | – | C/C=C/COC(=O)/C=C(C)/C=C/CC(C)CCCC(C)(C)OC (stereo not given) | 2.25 |
| 6.78 | – | CCSC(=O)/C=C(C)/C=C/CC(C)CCCC(C)(C)OC (stereo not given) | 3.49 |
| 5.89 | – | CCSC(=O)/C=C(C)/C=C/CC(C)CCCC(C)(C)O (stereo not given) | 3.43 |
| 5.06 | – | CC(/C=C/CC(C)CCCC(C)(C)O)=C\C(=O)OC(C)C (stereo not given) | 4.33 |
| 3.74 | – | COC(C)(C)CCCC(C)C/C=C/C(C)=C/C(=O)N(C)C (stereo not given) | 3.8 |
| 4.79 | – | COC(C)(C)CCCC(C)C/C=C/C(C)=C/C(=O)O (stereo not given) | – |
| 6.36 | – | CCOC(=O)/C=C(C)/C=C/CC(C)CCCC(C)(C)SC (stereo not given) | 2.24 |
| 7.81 | – | CCOC(=O)/C=C(C)/C=C/CC(C)CCCC(C)CC (stereo not given) | 3.47 |
| 6.19 | – | C=C(C)CCCC(C)C/C=C/C(C)=C/C(=O)OCC (stereo not given) | 2.49 |
| 5.57 | – | CCOC(=O)/C=C(C)/C=C/CC(C)CCCC(C)(C)OC(C)=O (stereo not given) | 2.28 |
| 6.02 | – | COC(C)(C)CCCC(C)C/C=C/C(C)=C/C(=O)CC(C)C (stereo not given) | 3.49 |
| 6.62 | – | CCCCOC(=O)/C=C(C)/C=C/CC(C)CCCC(C)(C)OC (stereo not given) | 0.93 |

| logP ([1]; read-out: logP) | logP [1] | Structure (SMILES) | pI50 [2] |
| --- | --- | --- | --- |
| 6.9 | – | CC(/C=C/CC(C)CCCC(C)(C)OC(C)C)=C\C(=O)OC(C)C (stereo not given) | 3.01 |
| 5.54 | – | CCOC(=O)/C=C(C)/C=C/CC(C)CCCC(C)(C)OC (stereo not given) | 1.92 |
| 6.44 | – | COC(C)(C)CCCC(C)C/C=C/C(C)=C/C(=O)OC1CCC1 (stereo not given) | 2.79 |
| 5 | – | COC(=O)/C=C(C)/C=C/CC(C)CCCC(C)(C)OC (stereo not given) | 0.89 |
| 6.06 | – | CCNC(=O)OC(C)(C)CCCC(C)C/C=C/C(C)=C/C(=O)OC(C)C (stereo not given) | 1.79 |
| 6.81 | – | CCSC(=O)/C=C(C)/C=C/CC(C)CCCC(C)(C)OC(C)=O (stereo not given) | 2.83 |
| 6.36 | – | COC(C)(C)CCCC(C)C/C=C/C(C)=C/C(=O)OC(C)(C)C (stereo not given) | 3.81 |
| 4.82 | – | CCN(CC)C(=O)/C=C(C)/C=C/CC(C)CCCC(C)(C)OC (stereo not given) | 5.51 |
| 6.44 | – | CCOC(=O)/C=C(C)/C=C/CC(C)CCCC(C)(C)Cl (stereo not given) | 3.5 |
| 7.15 | – | CCOC(=O)/C=C(C)/C=C/CC(C)CCCC(C)(C)C (stereo not given) | 2.5 |
| 7.19 | – | COC(C)(C)CCCC(C)C/C=C/C(C)=C/C(=O)SC(C)C (stereo not given) | 5.04 |
| 6.19 | – | CCOC(=O)/C=C(C)/C=C/CC(C)CCC=C(C)C (stereo not given) | 2.38 |
| 6.02 | – | CCC(C)C(=O)/C=C(C)/C=C/CC(C)CCCC(C)(C)OC (stereo not given) | 3.54 |
| 5.71 | – | COC(C)(C)CCCC(C)C/C=C/C(C)=C/C(=O)OC1CC1 (stereo not given) | 2.89 |
| 7.03 | – | COC(C)(C)CCCC(C)C/C=C/C(C)=C/C(=O)OCCC(C)C (stereo not given) | 0.81 |
| 6.08 | – | CCOC(=O)/C=C(C)/C=C/CC(C)CCCC(C)(C)OCC (stereo not given) | 2.77 |
| 4.34 | – | CCOC(=O)/C=C(C)/C=C/CC(C)CCC(OC)C(C)(C)OC (stereo not given) | 1.31 |
| 5.61 | – | CCCC(=O)/C=C(C)/C=C/CC(C)CCCC(C)(C)OC (stereo not given) | 5.73 |
| 8.39 | – | CCSC(=O)/C=C(C)/C=C/CC(C)CCCC(C)(C)C (stereo not given) | – |
| 7.56 | – | CC(/C=C/CC(C)CCCC(C)(C)C)=C\C(=O)OC(C)C (stereo not given) | – |
